≈ marks a conversion by molar mass, not a printed value.
Columns and labels:
Test in all cases: MIC microbroth dilution
Format in all cases: cell-based
[1] = test system: M. morganii GC 1617 TEM-10 + inducible AmpC; conditions: Morganella morganii, β-lactamase class A (ESBL), C, MHBII, 35° C. 18 hr, read-out: Minimal Inhibitory Concentration
Experimental: (§1) The in vitro activities of the antibiotics were determined by the microbroth dilution method as recommended by the National Committee for Clinical Laboratory Standards (NCCLS). (NCCLS. 2000. Methods for Dilution Antimicrobial Susceptibility Tests for Bacteria That Grow Aerobically; Approved Standards: M7-A5, vol. 19. National Committee for Clinical Laboratory Standards, Villanova, Pa.). Mueller-Hinton II broth (MHBII) (BBL Cockeysville, Md.), was used for the testing procedure. […]. The plates were incubated for 18-22 hours at 35 C. in ambient air.

[2] = test system: S. maltophilia GC 1712(L1); conditions: Stenotrophomonas maltophilia, β-lactamase class B, MHBII, 35° C. 18 hr, read-out: Minimal Inhibitory Concentration
Experimental: as §1

K. pn GC 1830 (SHV-2) = conditions: Klebsiella pneumoniae, β-lactamase class A (ESBL), MHBII, 35° C. 18 hr, read-out: Minimal Inhibitory Concentration
Experimental: as §1

E. coli GC 2400 (TEM-43) = conditions: Escherichia coli, β-lactamase class A (ESBL), MHBII, 35° C. 18 hr, read-out: Minimal Inhibitory Concentration
Experimental: as §1

[3] = test system: E. coli GC 6260 (TEM-1 + SHV-5); conditions: Escherichia coli, β-lactamase class A, A (ESBL), MHBII, 35° C. 18 hr, read-out: Minimal Inhibitory Concentration
Experimental: as §1

[4] = test system: K. pneumoniae GC 7824 Fox 5; conditions: Klebsiella pneumoniae, GC7824FOX5, β-lactamase class C, MHBII, 35° C. 18 hr, read-out: Minimal Inhibitory Concentration
Experimental: as §1

[5] = test system: A. baumannii GC 7692 TEM-1, AmpC; conditions: Acinetobacter baumannii, 18 h, read-out: Minimal Inhibitory Concentration
Experimental: as §1

[6] = test system: P. aeruginosa PT 9587 PTZ-R; conditions: Pseudomonas aeruginosa, PT9587PTZR; P. aeruginosa PT 9587, piperacillin-tazobactam-resistant; MHBII, 35° C. 18 hr; read-out: Minimal Inhibitory Concentration
Experimental: as §1

[7] = test system: K. pneumoniae GC 7822 Act 1; conditions: Klebsiella pneumoniae, GC7822ACT1, β-lactamase class C, MHBII, 35° C. 18 hr, read-out: Minimal Inhibitory Concentration
Experimental: as §1

[8] = test system: K. pn GC 6494 (TEM-1 + SHV-5); conditions: Klebsiella pneumoniae, β-lactamase class A, A (ESBL), MHBII, 35° C. 18 hr, read-out: Minimal Inhibitory Concentration
Experimental: as §1

[9] = test system: E. coli GC 1695 (TEM-1 + TEM-10); conditions: Escherichia coli, β-lactamase class A, A (ESBL), MHBII, 35° C. 18 hr, read-out: Minimal Inhibitory Concentration
Experimental: as §1

[10] = test system: E. cloacae GC 1712 AmpC-inducible; conditions: Enterobacter cloacae, β-lactamase class C, MHBII, 35° C. 18 hr, read-out: Minimal Inhibitory Concentration
Experimental: as §1

E. coli GC 6368 (SHV-7) = conditions: Escherichia coli, β-lactamase class A (ESBL), MHBII, 35° C. 18 hr, read-out: Minimal Inhibitory Concentration
Experimental: as §1

[11] = test system: K. oxytoca GC 7627 TEM-1 K1 KPC-2; conditions: Klebsiella oxytoca, 18 h, read-out: Minimal Inhibitory Concentration
Experimental: as §1

[12] = test system: E. coli GC 6197 (TEM-1 + SHV-7 + CMY-2); conditions: Escherichia coli, β-lactamase class A, A (ESBL), C, MHBII, 35° C. 18 hr, read-out: Minimal Inhibitory Concentration
Experimental: as §1

[13] = test system: K. pn GC 3104 (MIR-1 + TEM-1); conditions: Klebsiella pneumoniae, β-lactamase class A, C, MHBII, 35° C. 18 hr, read-out: Minimal Inhibitory Concentration
Experimental: as §1

K. pn GC 1516 (TEM-26) = conditions: Klebsiella pneumoniae, β-lactamase class A (ESBL), MHBII, 35° C. 18 hr, read-out: Minimal Inhibitory Concentration
Experimental: as §1

E. coli GC 6539 CMY-2 = conditions: Escherichia coli, GC6539CMY2, β-lactamase class C, MHBII, 35° C. 18 hr, read-out: Minimal Inhibitory Concentration
Experimental: as §1

E. coli GC 1684 (TEM-10) = conditions: Escherichia coli, β-lactamase class A (ESBL), MHBII, 35° C. 18 hr, read-out: Minimal Inhibitory Concentration
Experimental: as §1

[14] = test system: E. coli GC 2149 (ACT-1; TEM-1 + pl 5.6); conditions: Escherichia coli, β-lactamase class A, A (ESBL), C, MHBII, 35° C. 18 hr, read-out: Minimal Inhibitory Concentration
Experimental: as §1

[15] = test system: E. coli GC 2295 TEM-1 + AmpC; conditions: Escherichia coli, β-lactamase class A, C, MHBII, 35° C. 18 hr, read-out: Minimal Inhibitory Concentration
Experimental: as §1

E. cloacae GC 1475 (P99) = conditions: Enterobacter cloacae, β-lactamase class C, MHBII, 35° C. 18 hr, read-out: Minimal Inhibitory Concentration
Experimental: as §1

E. coli GC 2894 (AmpC) = conditions: Escherichia coli, β-lactamase class C, MHBII, 35° C. 18 hr, read-out: Minimal Inhibitory Concentration
Experimental: as §1

[16] = test system: E. aerogenes GC 7036 TEM-24, Amp C inducable; conditions: Klebsiella aerogenes, β-lactamase class A (ESBL), MHBII, 35° C. 18 hr, read-out: Minimal Inhibitory Concentration
Experimental: as §1

[17] = test system: E. coli GC 2021 (TEM-10 + pl 6.3); conditions: Escherichia coli, 18 h, read-out: Minimal Inhibitory Concentration
Experimental: as §1

K. pn GC 1510 (TEM-10) = conditions: Klebsiella pneumoniae, β-lactamase class A (ESBL), MHBII, 35° C. 18 hr, read-out: Minimal Inhibitory Concentration
Experimental: as §1

## CO/N=C(\C(=O)N[C@@H]1C(=O)N2C(C(=O)[O-])=C(C[N+]3(C)CCCC3)CS[C@H]12)c1csc(N)n1 [Cefepime]
[1]
  MIC: 0.25 mg/L (≈ 0.52 µM)
[2]
  MIC: > 16 mg/L
K. pn GC 1830 (SHV-2)
  MIC: 2 mg/L (≈ 4.16 µM)
E. coli GC 2400 (TEM-43)
  MIC: > 16 mg/L
[3]
  MIC: > 16 mg/L
[4]
  MIC: 2 mg/L (≈ 4.16 µM)
[5]
  MIC: > 16 mg/L
[6]
  MIC: 4 mg/L
[7]
  MIC: > 16 mg/L
[8]
  MIC: 4 mg/L (≈ 8.32 µM)
[9]
  MIC: 16 mg/L (≈ 33.3 µM)
[10]
  MIC: 0.25 mg/L (≈ 0.52 µM)
E. coli GC 6368 (SHV-7)
  MIC: 2 mg/L (≈ 4.16 µM)
[11]
  MIC: > 16 mg/L
[12]
  MIC: > 16 mg/L
[13]
  MIC: 1 mg/L (≈ 2.08 µM)
K. pn GC 1516 (TEM-26)
  MIC: > 16 mg/L
E. coli GC 6539 CMY-2
  MIC: 2 mg/L (≈ 4.16 µM)
E. coli GC 1684 (TEM-10)
  MIC: > 16 mg/L
[14]
  MIC: 16 mg/L (≈ 33.3 µM)
[15]
  MIC: 0.5 mg/L (≈ 1.04 µM)
E. cloacae GC 1475 (P99)
  MIC: 1 mg/L (≈ 2.08 µM)
E. coli GC 2894 (AmpC)
  MIC: 2 mg/L (≈ 4.16 µM)
[16]
  MIC: 2 mg/L (≈ 4.16 µM)
[17]
  MIC: 8 mg/L (≈ 16.6 µM)
K. pn GC 1510 (TEM-10)
  MIC: 0.5 mg/L (≈ 1.04 µM)

Reference: patent publication US20070027130A1, “Tricyclic 6-alkylidene-penem beta-lactamase inhibitors and beta-lactam antibiotic combination: a broad spectrum antibiotic” (priority 2005, published 2007)
